≈ marks a conversion by molar mass, not a printed value. Calls of active or inactive are those of the source. The calls are words filed in the database; no cut-off is given here.
Experiments:
Staphylococcus aureus [1] = test: Antimicrobial activity against Staphylococcus aureus ATCC 29213 after 24 hrs by broth microdilution susceptibility assay; type: functional; settings: ATCC 29213, 24 h
Cryptococcus neoformans [2] = test: Antifungal activity against Cryptococcus neoformans ATCC 90112 after 72 hrs by broth microdilution susceptibility assay; type: functional; settings: ATCC 90112, 72 h
SF-268 = test: Cytotoxicity against human SF268 cells after 48 hrs by sulforhodamine B assay; type: functional; settings: SF-268, 48 h
Cryptococcus neoformans [3] = test: Antimicrobial activity against Cryptococcus neoformans ATCC 90112 assessed clear zone in inhibition per disk by CLSI disk diffusion susceptibility assay; type: functional
Streptococcus pneumoniae [4] = test: Antimicrobial activity against Streptococcus pneumoniae ATCC 6303 by broth microdilution susceptibility assay; type: functional
Staphylococcus aureus [5] = test: Antimicrobial activity against Staphylococcus aureus ATCC 29213 by broth microdilution susceptibility assay; type: functional
NCI-H460 = test: Cytotoxicity against human NCI-H460 cells after 48 hrs by sulforhodamine B assay; type: functional; settings: NCI-H460, 48 h
MCF7 = test: Cytotoxicity against human MCF7 cells after 48 hrs by sulforhodamine B assay; type: functional; settings: MCF7, 48 h
Staphylococcus aureus [6] = test: Antimicrobial activity against Staphylococcus aureus ATCC 29213 assessed clear zone in inhibition per disk by CLSI disk diffusion susceptibility assay; type: functional
Cryptococcus neoformans [7] = test: Antifungal activity against Cryptococcus neoformans ATCC 90112 after 48 hrs by broth microdilution susceptibility assay; type: functional; settings: ATCC 90112, 48 h
P388 = test: Cytotoxicity against mouse P388 cells after 48 hrs by sulforhodamine B assay; type: functional; settings: P388, 48 h, read-out: ED50 (the source's name)
Enterococcus faecalis [8] = test: Antimicrobial activity against Enterococcus faecalis ATCC 29212 assessed clear zone in inhibition per disk by CLSI disk diffusion susceptibility assay; type: functional
KM-20L2 = test: Cytotoxicity against human KM20L2 cells after 48 hrs by sulforhodamine B assay; type: functional; settings: KM-20L2, 48 h
[9] = Inhibition of tubulin polymerization
Neisseria gonorrhoeae [10] = test: Antimicrobial activity against Neisseria gonorrhoeae ATCC 49226 assessed clear zone of inhibition measured per disk by CLSI disk diffusion susceptibility assay; type: functional
Enterobacter cloacae [11] = test: Antimicrobial activity against Enterobacter cloacae ATCC 13047 assessed clear zone in inhibition per disk by CLSI disk diffusion susceptibility assay; type: functional
Neisseria gonorrhoeae [12] = test: Antimicrobial activity against Neisseria gonorrhoeae ATCC 49226 after 24 hrs by broth microdilution susceptibility assay; type: functional; settings: ATCC 49226, 24 h
Neisseria gonorrhoeae [13] = test: Antimicrobial activity against Neisseria gonorrhoeae ATCC 49226 by broth microdilution susceptibility assay; type: functional
Streptococcus pneumoniae [14] = test: Antimicrobial activity against Streptococcus pneumoniae ATCC 6303 after 24 hrs by broth microdilution susceptibility assay; type: functional; settings: ATCC 6303, 24 h
SK-MEL-5 = test: Cytotoxicity against human SK-MEL-5 cells after 48 hrs by sulforhodamine B assay; type: functional
Streptococcus pneumoniae [15] = test: Antimicrobial activity against Streptococcus pneumoniae ATCC 6303 assessed clear zone in inhibition per disk by CLSI disk diffusion susceptibility assay; type: functional
Escherichia coli [16] = test: Antimicrobial activity against Escherichia coli ATCC 25922 by broth microdilution susceptibility assay; type: functional
[17] = tested on: Stenotrophomonas maltophilia; test: Antimicrobial activity against Stenotrophomonas maltophilia ATCC 13637 by broth microdilution susceptibility assay; type: functional
Enterobacter cloacae [18] = test: Antimicrobial activity against Enterobacter cloacae ATCC 13047 by broth microdilution susceptibility assay; type: functional
Escherichia coli [19] = test: Antimicrobial activity against Escherichia coli ATCC 25922 assessed clear zone in inhibition per disk by CLSI disk diffusion susceptibility assay; type: functional
Enterococcus faecalis [20] = test: Antimicrobial activity against Enterococcus faecalis ATCC 29212 by broth microdilution susceptibility assay; type: functional
[21] = tested on: Stenotrophomonas maltophilia; test: Antimicrobial activity against Stenotrophomonas maltophilia ATCC 13637 assessed clear zone in inhibition per disk by CLSI disk diffusion susceptibility assay; type: functional
Candida albicans [22] = test: Antifungal activity against Candida albicans ATCC 90028 after 48 hrs by broth microdilution susceptibility assay; type: functional; settings: ATCC 90028, 48 h
DU-145 = test: Cytotoxicity against human DU145 cells after 48 hrs by sulforhodamine B assay; type: functional; settings: DU-145, 48 h
OVCAR-3 = test: Cytotoxicity against human OVCAR-3 cells after 48 hrs by sulforhodamine B assay; type: functional
Micrococcus luteus [23] = test: Antimicrobial activity against Micrococcus luteus Presque Isle 456 by broth microdilution susceptibility assay; type: functional
BXPC-3 = test: Cytotoxicity against human BxPC3 cells after 48 hrs by sulforhodamine B assay; type: functional; settings: BXPC-3, 48 h
SF-295 = test: Cytotoxicity against human SF295 cells after 48 hrs by sulforhodamine B assay; type: functional
Candida albicans [24] = test: Antimicrobial activity against Candida albicans ATCC 90028 assessed clear zone in inhibition per disk by CLSI disk diffusion susceptibility assay; type: functional
A498 = test: Cytotoxicity against human A498 cells after 48 hrs by sulforhodamine B assay; type: functional
Micrococcus luteus [25] = test: Antimicrobial activity against Micrococcus luteus Presque Isle 456 assessed clear zone in inhibition per disk by CLSI disk diffusion susceptibility assay; type: functional
[26] = tested on: Stenotrophomonas maltophilia; test: Antimicrobial activity against Stenotrophomonas maltophilia ATCC 13637 after 24 hrs by broth microdilution susceptibility assay; type: functional; settings: ATCC 13637, 24 h
Escherichia coli [27] = test: Antimicrobial activity against Escherichia coli ATCC 25922 after 24 hrs by broth microdilution susceptibility assay; type: functional; settings: ATCC 25922, 24 h
Candida albicans [28] = test: Antifungal activity against Candida albicans ATCC 90028 after 24 hrs by broth microdilution susceptibility assay; type: functional; settings: ATCC 90028, 24 h
Enterococcus faecalis [29] = test: Antimicrobial activity against Enterococcus faecalis ATCC 29212 after 24 hrs by broth microdilution susceptibility assay; type: functional; settings: ATCC 29212, 24 h
Micrococcus luteus [30] = test: Antimicrobial activity against Micrococcus luteus Presque Isle 456 after 24 hrs by broth microdilution susceptibility assay; type: functional; settings: Presque Isle 456, 24 h

Question: Which MBC (Staphylococcus aureus [1]) does the source give for `COc1cc(/C=C/[N+](=O)[O-])ccc1OCc1ccccc1` here?
Answer: > 16 µg/mL

Question: And the MIC (Cryptococcus neoformans [2])?
Answer: 32 µg/mL (≈ 112 µM)

Question: What about the GI50 (SF-268) of the same molecule?
Answer: 0.94 µg/mL (≈ 3.29 µM)

Question: What about the MIC (Cryptococcus neoformans [3]) of the same molecule?
Answer: <0.78 µg

Question: And the MIC (Streptococcus pneumoniae [4])?
Answer: 16 µg/mL (≈ 56.1 µM)

Question: And the MIC (Staphylococcus aureus [5])?
Answer: 4 µg/mL (≈ 14 µM)

Question: What about the GI50 (NCI-H460) of the same molecule?
Answer: 1.3 µg/mL (≈ 4.56 µM)

Question: What about the GI50 (MCF7) of the same molecule?
Answer: 0.96 µg/mL (≈ 3.36 µM)

Question: And the MIC (Staphylococcus aureus [6])?
Answer: 6.25 µg

Question: What about the MFC (Cryptococcus neoformans [7]) of the same molecule?
Answer: 64 µg/mL (≈ 224 µM)

Question: What about the EC50 (P388) of the same molecule?
Answer: 16.6 µg/mL (≈ 58.2 µM)

Question: And the MIC (Enterococcus faecalis [8])?
Answer: >100 µg

Question: What about the GI50 (KM-20L2) of the same molecule?
Answer: 1.5 µg/mL (≈ 5.26 µM)

Question: What about the IC50 [9] of the same molecule?
Answer: 2.5 µM

Question: And the MIC (Neisseria gonorrhoeae [10])?
Answer: <0.78 µg

Question: And the MIC (Enterobacter cloacae [11])?
Answer: >100 µg

Question: What about the MBC (Neisseria gonorrhoeae [12]) of the same molecule?
Answer: 2 µg/mL (≈ 7.01 µM)

Question: And the MIC (Neisseria gonorrhoeae [13])?
Answer: 1 µg/mL (≈ 3.51 µM)

Question: What about the MBC (Streptococcus pneumoniae [14]) of the same molecule?
Answer: 32 µg/mL (≈ 112 µM)

Question: And the GI50 (SK-MEL-5)?
Answer: inactive

Question: What about the MIC (Streptococcus pneumoniae [15]) of the same molecule?
Answer: 12.5 µg

Question: And the MIC (Escherichia coli [16])?
Answer: > 64 µg/mL

Question: What about the MIC [17] of the same molecule?
Answer: > 64 µg/mL

Question: What about the MIC (Enterobacter cloacae [18]) of the same molecule?
Answer: > 64 µg/mL

Question: And the MIC (Escherichia coli [19])?
Answer: >100 µg

Question: What about the MIC (Enterococcus faecalis [20]) of the same molecule?
Answer: > 64 µg/mL

Question: What about the MIC [21] of the same molecule?
Answer: >100 µg

Question: And the MIC (Candida albicans [22])?
Answer: > 64 µg/mL

Question: And the GI50 (DU-145)?
Answer: 1.3 µg/mL (≈ 4.56 µM)

Question: What about the GI50 (OVCAR-3) of the same molecule?
Answer: inactive

Question: And the MIC (Micrococcus luteus [23])?
Answer: 4 µg/mL (≈ 14 µM)

Question: And the GI50 (BXPC-3)?
Answer: 1.7 µg/mL (≈ 5.96 µM)

Question: What about the GI50 (SF-295) of the same molecule?
Answer: inactive

Question: What about the MIC (Candida albicans [24]) of the same molecule?
Answer: >100 µg

Question: And the GI50 (A498)?
Answer: inactive

Question: And the MIC (Micrococcus luteus [25])?
Answer: >100 µg

Question: Which results are given for `O=[N+]([O-])/C=C/c1ccc2c(c1)OCO2`?
Answer: MBC (Staphylococcus aureus [1]): > 64 µg/mL; MIC (Cryptococcus neoformans [2]): 8 µg/mL (≈ 41.4 µM); GI50 (SF-268): 1.9 µg/mL (≈ 9.84 µM); MIC (Cryptococcus neoformans [3]): 0.78 µg; MBC [26]: > 64 µg/mL; MIC (Streptococcus pneumoniae [4]): 16 µg/mL (≈ 82.8 µM); MIC (Staphylococcus aureus [5]): 32 µg/mL (≈ 166 µM); GI50 (NCI-H460): 2 µg/mL (≈ 10.4 µM); GI50 (MCF7): 0.58 µg/mL (≈ 3 µM); MIC (Staphylococcus aureus [6]): 6.25 µg; MFC (Cryptococcus neoformans [7]): 16 µg/mL (≈ 82.8 µM); MBC (Escherichia coli [27]): > 64 µg/mL; EC50 (P388): 2 µg/mL (≈ 10.4 µM); MIC (Enterococcus faecalis [8]): 6.25 µg; GI50 (KM-20L2): 1.8 µg/mL (≈ 9.32 µM); IC50 [9]: 5.3 µM; MIC (Neisseria gonorrhoeae [10]): <0.78 µg; MIC (Enterobacter cloacae [11]): 12.5 µg; MBC (Neisseria gonorrhoeae [12]): 2 µg/mL (≈ 10.4 µM); MIC (Neisseria gonorrhoeae [13]): 1 µg/mL (≈ 5.18 µM); MBC (Streptococcus pneumoniae [14]): 32 µg/mL (≈ 166 µM); MFC (Candida albicans [28]): 16 µg/mL (≈ 82.8 µM); GI50 (SK-MEL-5): inactive; MIC (Streptococcus pneumoniae [15]): 0.78 µg; MIC (Escherichia coli [16]): 64 µg/mL (≈ 331 µM); MBC (Enterococcus faecalis [29]): > 64 µg/mL; MIC [17]: 64 µg/mL (≈ 331 µM); MBC (Micrococcus luteus [30]): > 64 µg/mL; MIC (Enterobacter cloacae [18]): > 64 µg/mL; MIC (Escherichia coli [19]): 6.25 µg; MIC (Enterococcus faecalis [20]): 64 µg/mL (≈ 331 µM); MIC [21]: 6.25 µg; MIC (Candida albicans [22]): 8 µg/mL (≈ 41.4 µM); GI50 (DU-145): 1.8 µg/mL (≈ 9.32 µM); GI50 (OVCAR-3): inactive; MIC (Micrococcus luteus [23]): 64 µg/mL (≈ 331 µM); GI50 (BXPC-3): 1.7 µg/mL (≈ 8.8 µM); GI50 (SF-295): inactive; MIC (Candida albicans [24]): 1.56 µg; GI50 (A498): inactive; MIC (Micrococcus luteus [25]): 50 µg

Reference: ChEMBL document CHEMBL1152576, “E-Combretastatin and E-resveratrol structural modifications: antimicrobial and cancer cell growth inhibitory beta-E-nitrostyrenes” (Bioorg Med Chem, 2009)
